# Measurements: patent publication US20050267156A1, “Broadspectrum 2-amino-benzothiazole sulfonamide hiv protease inhibitors” (Tibotec Pharmaceuticals Ltd., priority 2002, published 2005)
# Where two headings read alike, the source gives them in different places.
# Experiments:
# HIV-1 strain LAI = test: Cellular anti-HIV assay (MT4/MTT), wild type; assay type: cell-based; conditions: wild type HIV-1 strain LAI, MT4 cells; for EC50: Human immunodeficiency virus 1, read-out: WT (pEC50) (converted)
# Experimental: The compounds of the present invention were examined for anti-viral activity in a cellular assay. […] The cellular assay was performed according to the following procedure. HIV- or mock-infected MT4 cells were incubated for five days in the presence of various concentrations of the inhibitor. […] Cell viability is measured by measuring the concentration of MTT, a yellow, water soluble tetrazolium dye that is converted to a purple, water insoluble formazan in the mitochondria of living cells only. Upon solubilization of the resulting formazan crystals with isopropanol, the absorbance of the solution is monitored at 540 nm. The values correlate directly to the number of living cells remaining in the culture at the completion of the five-day incubation. The inhibitory activity of the compound was monitored on the virus-infected cells and was expressed as EC50 and EC90. These values represent the amount of the compound required to protect 50% and 90%, respectively, of the cells from the cytopathogenic effect of the virus. […] The selectivity index (SI) (ratio CC50/EC50) is an indication of the selectivity of the anti-HIV activity of the inhibitor. Wherever results are reported as e.g. pEC50 or pCC50 values, the result is expressed as the negative logarithm of the result expressed as EC50 or CC50 respectively.
# mutant HIV strain A = test: microbe, parasite or virus in culture; assay type: cell-based; conditions: for fold resistance Strain A: FR=EC50 (mutant strain)/EC50 (HIV-1 strain LAI); for EC50: Human immunodeficiency virus 1, MT4, read-out: pEC50 Strain A, mutant HIV strain A, MT4 cells (converted); for pEC50 Strain A: mutant HIV strain A, MT4 cells
# Experimental: (§1) HIV- or mock-infected MT4 cells were incubated for five days in the presence of various concentrations of the inhibitor. […] Cell viability is measured by measuring the concentration of MTT, a yellow, water soluble tetrazolium dye that is converted to a purple, water insoluble formazan in the mitochondria of living cells only. Upon solubilization of the resulting formazan crystals with isopropanol, the absorbance of the solution is monitored at 540 nm. The values correlate directly to the number of living cells remaining in the culture at the completion of the five-day incubation. The inhibitory activity of the compound was monitored on the virus-infected cells and was expressed as EC50 and EC90. These values represent the amount of the compound required to protect 50% and 90%, respectively, of the cells from the cytopathogenic effect of the virus. […] The selectivity index (SI) (ratio CC50/EC50) is an indication of the selectivity of the anti-HIV activity of the inhibitor. Wherever results are reported as e.g. pEC50 or pCC50 values, the result is expressed as the negative logarithm of the result expressed as EC50 or CC50 respectively.
# mutant HIV strain B = test: microbe, parasite or virus in culture; assay type: cell-based; conditions: for fold resistance Strain B: FR=EC50 (mutant strain)/EC50 (HIV-1 strain LAI); for EC50: Human immunodeficiency virus 1, MT4, read-out: pEC50 Strain B, mutant HIV strain B, MT4 cells (converted); for pEC50 Strain B: mutant HIV strain B, MT4 cells
# Experimental: as §1
# mutant HIV strain C = test: microbe, parasite or virus in culture; assay type: cell-based; conditions: for fold resistance Strain C: FR=EC50 (mutant strain)/EC50 (HIV-1 strain LAI); for EC50: Human immunodeficiency virus 1, MT4, read-out: pEC50 Strain C, mutant HIV strain C, MT4 cells (converted); for pEC50 Strain C: mutant HIV strain C, MT4 cells
# Experimental: as §1
# mutant HIV strain D = test: microbe, parasite or virus in culture; assay type: cell-based; conditions: for fold resistance Strain D: FR=EC50 (mutant strain)/EC50 (HIV-1 strain LAI); for EC50: Human immunodeficiency virus 1, MT4, read-out: pEC50 Strain D, mutant HIV strain D, MT4 cells (converted); for pEC50 Strain D: mutant HIV strain D, MT4 cells
# Experimental: as §1
# mutant HIV strain E = test: microbe, parasite or virus in culture; assay type: cell-based; conditions: for fold resistance Strain E: FR=EC50 (mutant strain)/EC50 (HIV-1 strain LAI); for EC50: Human immunodeficiency virus 1, MT4, read-out: pEC50 Strain E, mutant HIV strain E, MT4 cells (converted); for pEC50 Strain E: mutant HIV strain E, MT4 cells
# Experimental: as §1
# mutant HIV strain F = test: microbe, parasite or virus in culture; assay type: cell-based; conditions: for fold resistance Strain F: FR=EC50 (mutant strain)/EC50 (HIV-1 strain LAI); for EC50: Human immunodeficiency virus 1, MT4, read-out: pEC50 Strain F, mutant HIV strain F, MT4 cells (converted); for pEC50 Strain F: mutant HIV strain F, MT4 cells
# Experimental: as §1
# [1] = Toxicity on mock-infected cells (MTT); assay type: cell-based; conditions: human
# Experimental: (§2) HIV- or mock-infected MT4 cells were incubated for five days in the presence of various concentrations of the inhibitor. At the end of the incubation period, the replicating virus in the control cultures has killed all HIV-infected cells in the absence of any inhibitor. Cell viability is measured by measuring the concentration of MTT, a yellow, water soluble tetrazolium dye that is converted to a purple, water insoluble formazan in the mitochondria of living cells only. Upon solubilization of the resulting formazan crystals with isopropanol, the absorbance of the solution is monitored at 540 nm. The values correlate directly to the number of living cells remaining in the culture at the completion of the five-day incubation. The inhibitory activity of the compound was monitored on the virus-infected cells and was expressed as EC50 and EC90. These values represent the amount of the compound required to protect 50% and 90%, respectively, of the cells from the cytopathogenic effect of the virus. […] The selectivity index (SI) (ratio CC50/EC50) is an indication of the selectivity of the anti-HIV activity of the inhibitor. Wherever results are reported as e.g. pEC50 or pCC50 values, the result is expressed as the negative logarithm of the result expressed as EC50 or CC50 respectively.
# Pharmacokinetics in rats = assay type: in vivo, Whistar rats; conditions: rat
# Experimental: The pharmacokinetic properties of some compounds of formula (I) were tested on rats and dogs. The compounds were evaluated in Whistar rats, source Iffa Credo, weighing approximately 350 g. Before dosing the animals were fasted overnight (approximately 12 h fasting period). The compounds were dissolved in DMSO or PEG 400. The results represented in the table concern the results from the oral or intra-peritoneal dosing of the compounds. Blood was sampled at 30 min, 1 h, 2 h, 3 h, no pre-dose sample was taken. The amount of the compound in the biological sample was determined using LC-MS. In the table below “or” means oral dosing, “ip” means intraperitoneal dosing, “mpk” means mg per kilogram.
# mock-infected MT4 cells = test: Toxicity on mock-infected cells (MTT); assay type: cell-based
# Experimental: as §2
# [2] = Whistar, blood, ip, 10 mpk, ip, DMSO, results normalized to 10 mpk, read-out: Cmax
# [3] = Whistar, blood, po, 10 mpk, or, PEG400, results normalized to 10 mpk, read-out: Cmax
Compound,EC50 (HIV-1 strain LAI) [nM],fold resistance Strain A (mutant HIV strain A),EC50 (mutant HIV strain A) [nM],fold resistance Strain B (mutant HIV strain B),EC50 (mutant HIV strain B) [nM],fold resistance Strain C (mutant HIV strain C),EC50 (mutant HIV strain C) [nM],fold resistance Strain D (mutant HIV strain D),EC50 (mutant HIV strain D) [nM],fold resistance Strain E (mutant HIV strain E),EC50 (mutant HIV strain E) [nM],fold resistance Strain F (mutant HIV strain F),EC50 (mutant HIV strain F) [nM],CC50 at 5 days [1] [nM],Cmax (Pharmacokinetics in rats; [2]) [ng/mL],WT (pEC50) (HIV-1 strain LAI),pEC50 Strain A (mutant HIV strain A),pEC50 Strain B (mutant HIV strain B),pEC50 Strain C (mutant HIV strain C),pEC50 Strain F (mutant HIV strain F),further results
"CNc1nc2ccc(S(=O)(=O)N(CC(C)C)C[C@@H](O)[C@H](Cc3ccccc3)NC(=O)OC3COC4OCCC34)cc2s1 (stereo partly drawn) [Compound 4, {(1S,2R)-1-benzyl-2-hydroxy-3-[isobutyl-(2-methylamino-benzothiazole-6-sulfonyl)-amino]-propyl}-carbamic acid hexahydro-furo[2,3-b]furan-3-yl ester]",0.457,7.9,3.63,2.6,1.17,2.6,1.17,2.6,1.17,2.8,1.29,19.1,8.71,> 10000,1670,–,–,–,–,–,"Cmax (Pharmacokinetics in rats; Whistar, blood, po, 10 mpk, or, DMSO, results normalized to 10 mpk, read-out: Cmax): 348 ng/mL; Cmax (Pharmacokinetics in rats; [3]): 225 ng/mL"
"CNc1nc2ccc(S(=O)(=O)N(CC(C)C)C[C@@H](O)[C@H](Cc3ccccc3)NC(=O)O[C@H]3CO[C@H]4OCC[C@H]43)cc2s1 [Compound 5, {(1S,2R)-1-benzyl-2-hydroxy-3-[isobutyl-(2-methylamino-benzothiazole-6-sulfonyl)-amino]-propyl}-carbamic acid(3R,3aS,6aR)-(hexahydro-furo[2,3-b]furan-3-yl)ester]",–,0.8,–,0.5,–,0.4,–,–,–,–,–,3.5,–,–,–,9.26,9.37,9.57,9.71,8.71,Tox (pCC50) (mock-infected MT4 cells): 4.15
"CC(C)CN(C[C@@H](O)[C@H](Cc1ccccc1)NC(=O)O[C@H]1CCOC1)S(=O)(=O)c1ccc2nc(N)sc2c1 [Compound 13, {(1S,2R)-3-[(2-amino-benzothiazole-6-sulfonyl)-isobutyl-amino]-1-benzyl-2-hydroxypropyl}-carbamic acid(S) (tetrahydro-furan-3-yl)ester]",–,13.5,–,1.9,–,1.3,–,2.5,–,0.9,–,34.7,–,–,–,8.52,7.39,8.24,8.42,6.98,pEC50 Strain D (mutant HIV strain D): 8.13; pEC50 Strain E (mutant HIV strain E): 8.57; Tox (pCC50) (mock-infected MT4 cells): <4
"CNc1nc2ccc(S(=O)(=O)N(CC(C)C)C[C@@H](O)[C@H](Cc3ccccc3)NC(=O)COc3c(C)cccc3C)cc2s1 [Compound 15, N-{(1S,2R)-1-benzyl-2-hydroxy-3-[isobutyl-(2-methylamino-benzothiazole-6-sulfonyl)-amino]-propyl}-2-(2,6-dimethyl-phenoxy)-acetamide]",11.2,4.6,51.3,2.6,28.8,3.5,39.8,4.5,50.1,3.2,36.3,20.4,229,91200,86,–,–,–,–,–,Cmax (Pharmacokinetics in rats; [3]): 10 ng/mL
"CNc1nc2ccc(S(=O)(=O)N(CC(C)C)C[C@@H](O)[C@H](Cc3ccccc3)NC(=O)O[C@H]3CCOC3)cc2s1.O=C(O)C(F)(F)F [Compound 22, {(1S,2R)-1-benzyl-2-hydroxy-3-[isobutyl-(2-methylamino-benzothiazole-6-sulfonyl)-amino]-propyl}-carbamic acid(S)(tetrahydro-furan-3-yl)ester trifluoroacetate]",–,81.3,–,10.2,–,4.5,–,11.5,–,3.0,–,549.5,–,–,–,8.84,6.93,7.83,8.19,6.1,pEC50 Strain D (mutant HIV strain D): 7.78; pEC50 Strain E (mutant HIV strain E): 8.36; Tox (pCC50) (mock-infected MT4 cells): <4
"CNc1nc2ccc(S(=O)(=O)N(CC(C)C)C[C@@H](O)[C@H](Cc3ccccc3)NC(=O)COc3c(C)cc(CN)cc3C)cc2s1 [Compound 25, 2-(4-aminomethyl-2,6-dimethyl-phenoxy)-N-{(1S,2R)-1-benzyl-2-hydroxy-3-[isobutyl-(2-methylamino-benzothiazole-6-sulfonyl)-amino]-propyl}-acetamide]",4.07,10.7,43.7,4.9,20,4.4,17.8,10.0,40.7,4.3,17.4,117.5,479,14100,453,–,–,–,–,–,–
"{(1S,2R)-3-[(2-amino-benzothiazole-6-sulfonyl)-isobutyl-amino]-1-benzyl-2-hydroxypropyl}-carbamic acid(3R,3aS,6aR)-hexahydro-furo[2,3-b]furan-3-yl ester [Compound 2]",–,0.3,–,0.4,–,0.4,–,0.3,–,0.5,–,0.5,–,–,–,8.18,8.68,8.59,8.54,8.45,"pEC50 Strain D (mutant HIV strain D): 8.69; pEC50 Strain E (mutant HIV strain E): 8.50; Tox (pCC50) (mock-infected MT4 cells; mock-infected MT4 cells, pCC50): 4.07; Cmax (Pharmacokinetics in rats; ip, DMSO, results normalized to 10 mpk): 427 ng/mL; Cmax (Pharmacokinetics in rats; or, PEG400, results normalized to 10 mpk): 52 ng/mL"
